Results published in patent publication US9271978B2 (Zenith Epigenetics Corp., priority 2012, dated 2016).

Assays:
c-myc = assay: Inhibition of c-myc expression in MV4-11 cells (mRNA, real-time PCR); assay type: cell-based; parameters: key: Active: Compounds with an IC50 value less than 30 μM were deemed to be active.; Not Active: Compounds with an IC50 value less than 30 μM were deemed to be active; settings: Human AML MV4-11 cells, 3 h incubation
How it was run: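 Duplex RT-qPCR of c-myc against cyclophilin cDNA gave IC50 from a dose–response curve. Input was isolated mRNA from 2.5×10^4 MV4-11 cells after 3 h exposure at 37 °C to compound or 0.1% DMSO vehicle.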

[1] = target: T1, Brd4 bromodomain 1 (BRD4(1)) (Homo sapiens, UniProt O60885); assay: Inhibition of tetra-acetylated histone H4 binding to Brd4 bromodomain 1 (TR-FRET); parameters: key: Active: Compounds with an IC50 value less than 30 μM were deemed to be active.; Not Active: Compounds with an IC50 value less than 30 μM were deemed to be active; settings: tetra-acetylated histone H4 peptide, active = IC50 <30 μM
T1 construct: Illustrative results with the first bromodomain of Brd4; made in house; host or cells: E. coli BL21 (DE3)
How it was run: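 IC50 values come from dose-response curves of the 665 nm to 620 nm TR-FRET signal decrease, measured after 2 h at room temperature. Reactions contained 200 nM E. coli-expressed His-tagged bromodomain, 25-50 nM biotinylated tetra-acetylated H4 peptide, Eu-streptavidin plus XL665 anti-His antibody, with 30 mM HEPES pH 7.4, 320 mM KF and 0.2% DMSO.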

hIL-6 mRNA = assay: Inhibition of hIL-6 mRNA transcription in U937 cells; assay type: cell-based, human; parameters: key: Active: Compounds with an IC50 value less than 30 μM were deemed to be active.; Not Active: Compounds with an IC50 value less than 30 μM were deemed to be active; settings: LPS stimulation, active = IC50 <30 μM
How it was run: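 Readout is one-step real-time PCR of hIL-6 mRNA, normalized to an internal control and given as fold induction versus control. Cells: PMA (60 ng/mL, 3 days)-differentiated U937 macrophages, compound added 1 h before 1 ug/mL LPS, harvested after 3 h at 37° C.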

[2] = test system: human AML MV-4-11 (CRL-9591) cells; assay: Inhibition of cell proliferation in MV4-11 cells; assay type: cell-based; parameters: key: Active: Compounds with an IC50 value less than 30 μM were deemed to be active.; Not Active: Compounds with an IC50 value less than 30 μM were deemed to be active; settings: human AML MV-4-11 cells, 72 h; active = IC50 <30 μM
How it was run: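 IC50 values come from blank-corrected proliferation relative to DMSO controls, read as 490 nm absorbance 3–4 h after CellTiter Aqueous One addition. Before that, cells seeded at 5×10^4/well were exposed for 72 h (37° C, 5% CO2) to triplicate two-fold compound dilutions spanning 30–0.2 μM.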

ApoA-I mRNA = assay: Up-regulation of hApoA-1 mRNA transcription in Huh7 cells; assay type: cell-based, human; parameters: key: Active: Compounds with an EC170 value less than 30 μM were deemed to be active; settings: 48 h treatment, ApoA-I mRNA by real-time PCR, Active = EC170 less than 30 μM
Procedure: In this example, ApoA-I mRNA in tissue culture cells was quantitated to measure the transcriptional up-regulation of ApoA-I when treated with a compound of the present disclosure.
Huh7 cells (2.5×10^5 per well) were plated in a 96-well plate using 100 μL DMEM per well, (Gibco DMEM supplemented with penicillin/streptomycin and 10% FBS), 24 h before the addition of the compound of interest. After 48 h treatment, the spent media was removed from the Huh-7 cells and placed on ice (for immediate use) or at −80° C. (for future use) with the “LDH cytotoxicity assay Kit II” from Abcam. The cells remaining in the plate were rinsed with 100 μL PBS.
Then 85 μL of cell lysis solution was added to each well and incubated for 5-10 min at room temperature, to allow for complete cell lysis and detachment. mRNA was then prepared using the “mRNA Catcher PLUS plate” from Life Technologies, according to the protocol supplied. After the last wash, as much wash buffer as possible was aspirated without allowing the wells to dry. Elution Buffer (E3, 80 μL) was then added to each well. mRNA was then eluted by incubating the mRNA Catcher PLUS plate with Elution Buffer for 5 min at 68° C., and then 1 min at 4° C. Catcher plates with mRNA eluted were kept on ice for use or stored at −80° C.
The eluted mRNA isolated was then used in a one-step real-time PCR reaction, using components of the Ultra Sense Kit together with Life Technologies primer-probe mixes. Real-time PCR data was analyzed, using the Ct values, to determine the fold induction of each unknown sample, relative to the control (that is, relative to the control for each independent DMSO concentration).
Compounds with an EC170 value less than 30 μM were deemed to be active.

Cc1onc(CO)c1-c1cc(N)c(=O)n(Cc2ccc(Cl)cc2)c1 [Example 205, 3-Amino-1-(4-chlorobenzyl)-5-(3-(hydroxymethyl)-5-methylisoxazol-4-yl)pyridin-2(1H)-one]
Active: c-myc activity (IC50 <30 μM) (c-myc) | FRET activity (IC50 <30 μM) BRD4(1) [1] | IL-6 activity (IC50 <30 μM) (hIL-6 mRNA) | Cell Proliferation activity (IC50 <30 μM) [2] | ApoA-1 activity (EC170 <30 μM) (ApoA-I mRNA)

Cc1noc(C)c1-c1cc(N)c(=O)n(Cc2ccc(Cl)cc2F)c1 [Example 206, 3-amino-1-(4-chloro-2-fluorobenzyl)-5-(3,5-dimethylisoxazol-4-yl)pyridin-2(1H)-one]
Active: c-myc activity (IC50 <30 μM) (c-myc) | FRET activity (IC50 <30 μM) BRD4(1) [1] | IL-6 activity (IC50 <30 μM) (hIL-6 mRNA) | Cell Proliferation activity (IC50 <30 μM) [2] | ApoA-1 activity (EC170 <30 μM) (ApoA-I mRNA)

Cc1noc(C)c1-c1cc(N)c(=O)n(Cc2ccc(F)cc2Cl)c1 [Example 207, 3-amino-1-(2-chloro-4-fluorobenzyl)-5-(3,5-dimethylisoxazol-4-yl)pyridin-2(1H)-one]
Active: c-myc activity (IC50 <30 μM) (c-myc) | FRET activity (IC50 <30 μM) BRD4(1) [1] | IL-6 activity (IC50 <30 μM) (hIL-6 mRNA) | Cell Proliferation activity (IC50 <30 μM) [2] | ApoA-1 activity (EC170 <30 μM) (ApoA-I mRNA)

Cc1noc(C)c1-c1cc(NC2CCCC2)c(=O)n(Cc2ccccc2)c1 [Example 208, 1-benzyl-3-(cyclopentylamino)-5-(3,5-dimethylisoxazol-4-yl)pyridin-2(1H)-one]
Active: c-myc activity (IC50 <30 μM) (c-myc) | FRET activity (IC50 <30 μM) BRD4(1) [1] | IL-6 activity (IC50 <30 μM) (hIL-6 mRNA) | Cell Proliferation activity (IC50 <30 μM) [2] | ApoA-1 activity (EC170 <30 μM) (ApoA-I mRNA)

Cc1noc(C)c1-c1cc(O)c(=O)n(Cc2ccccc2)c1 [Example 209, 1-benzyl-5-(3,5-dimethylisoxazol-4-yl)-3-hydroxypyridin-2(1H)-one]
Active: c-myc activity (IC50 <30 μM) (c-myc) | FRET activity (IC50 <30 μM) BRD4(1) [1] | IL-6 activity (IC50 <30 μM) (hIL-6 mRNA) | Cell Proliferation activity (IC50 <30 μM) [2] | ApoA-1 activity (EC170 <30 μM) (ApoA-I mRNA)

COc1cc(-c2c(C)noc2C)cn(Cc2ccccc2)c1=O [Example 210, 1-benzyl-5-(3,5-dimethylisoxazol-4-yl)-3-methoxypyridin-2(1H)-one]
Active: c-myc activity (IC50 <30 μM) (c-myc) | FRET activity (IC50 <30 μM) BRD4(1) [1] | IL-6 activity (IC50 <30 μM) (hIL-6 mRNA) | Cell Proliferation activity (IC50 <30 μM) [2] | ApoA-1 activity (EC170 <30 μM) (ApoA-I mRNA)

Cc1noc(C)c1-c1cc(N)c(=O)n(Cc2ccc(F)c(F)c2)c1 [Example 211, 3-amino-1-(3,4-difluorobenzyl)-5-(3,5-dimethylisoxazol-4-yl)pyridin-2(1H)-one]
Active: c-myc activity (IC50 <30 μM) (c-myc) | FRET activity (IC50 <30 μM) BRD4(1) [1] | IL-6 activity (IC50 <30 μM) (hIL-6 mRNA) | Cell Proliferation activity (IC50 <30 μM) [2] | ApoA-1 activity (EC170 <30 μM) (ApoA-I mRNA)

Cc1noc(C)c1-c1cc(N)c(=O)n(Cc2ccc(F)c(Cl)c2)c1 [Example 212, 3-amino-1-(3-chloro-4-fluorobenzyl)-5-(3,5-dimethylisoxazol-4-yl)pyridin-2(1H)-one]
Active: c-myc activity (IC50 <30 μM) (c-myc) | FRET activity (IC50 <30 μM) BRD4(1) [1] | IL-6 activity (IC50 <30 μM) (hIL-6 mRNA) | Cell Proliferation activity (IC50 <30 μM) [2] | ApoA-1 activity (EC170 <30 μM) (ApoA-I mRNA)

Cc1noc(C)c1-c1cc(N)c(=O)n(Cc2ccc(Cl)c(Cl)c2)c1 [Example 213, 3-amino-1-(3,4-dichlorobenzyl)-5-(3,5-dimethylisoxazol-4-yl)pyridin-2(1H)-one]
Active: c-myc activity (IC50 <30 μM) (c-myc) | FRET activity (IC50 <30 μM) BRD4(1) [1] | IL-6 activity (IC50 <30 μM) (hIL-6 mRNA) | Cell Proliferation activity (IC50 <30 μM) [2] | ApoA-1 activity (EC170 <30 μM) (ApoA-I mRNA)

Cc1noc(C)c1-c1cc(N)c(=O)n(Cc2nccs2)c1 [Example 215, 3-amino-5-(3,5-dimethylisoxazol-4-yl)-1-(thiazol-2-ylmethyl)pyridin-2(1H)-one]
Active: c-myc activity (IC50 <30 μM) (c-myc) | FRET activity (IC50 <30 μM) BRD4(1) [1] | IL-6 activity (IC50 <30 μM) (hIL-6 mRNA) | Cell Proliferation activity (IC50 <30 μM) [2] | ApoA-1 activity (EC170 <30 μM) (ApoA-I mRNA)

Cc1noc(C)c1-c1cc(N)c(=O)n(Cc2ccc(C#N)cc2)c1 [Example 216, 4-((3-amino-5-(3,5-dimethylisoxazol-4-yl)-2-oxopyridin-1(2H)-yl)methyl)benzonitrile]
Active: c-myc activity (IC50 <30 μM) (c-myc) | FRET activity (IC50 <30 μM) BRD4(1) [1] | IL-6 activity (IC50 <30 μM) (hIL-6 mRNA) | Cell Proliferation activity (IC50 <30 μM) [2] | ApoA-1 activity (EC170 <30 μM) (ApoA-I mRNA)

COc1ccc(Cn2cc(-c3c(C)noc3C)cc(N)c2=O)cc1 [Example 220, 3-amino-5-(3,5-dimethylisoxazol-4-yl)-1-(4-methoxybenzyl)pyridin-2(1H)-one]
Active: c-myc activity (IC50 <30 μM) (c-myc) | FRET activity (IC50 <30 μM) BRD4(1) [1] | IL-6 activity (IC50 <30 μM) (hIL-6 mRNA) | Cell Proliferation activity (IC50 <30 μM) [2] | ApoA-1 activity (EC170 <30 μM) (ApoA-I mRNA)

Cc1noc(C)c1-c1cc(N)c(=O)n(Cc2ccc(Cl)s2)c1 [Example 222, 3-amino-1-((5-chlorothiophen-2-yl)methyl)-5-(3,5-dimethylisoxazol-4-yl)pyridin-2(1H)-one]
Active: c-myc activity (IC50 <30 μM) (c-myc) | FRET activity (IC50 <30 μM) BRD4(1) [1] | IL-6 activity (IC50 <30 μM) (hIL-6 mRNA) | Cell Proliferation activity (IC50 <30 μM) [2] | ApoA-1 activity (EC170 <30 μM) (ApoA-I mRNA)

Cc1noc(C)c1-c1cc(Nc2cncc(F)c2)c(=O)n(Cc2ccccc2)c1 [Example 223, 1-benzyl-5-(3,5-dimethylisoxazol-4-yl)-3-((5-fluoropyridin-3-yl)amino)pyridin-2(1H)-one]
Active: c-myc activity (IC50 <30 μM) (c-myc) | FRET activity (IC50 <30 μM) BRD4(1) [1] | IL-6 activity (IC50 <30 μM) (hIL-6 mRNA) | Cell Proliferation activity (IC50 <30 μM) [2] | ApoA-1 activity (EC170 <30 μM) (ApoA-I mRNA)

Cc1noc(C)c1-c1cc(N)c(=O)n(Cc2ccc(OC(F)(F)F)cc2)c1 [Example 226, 3-amino-5-(3,5-dimethylisoxazol-4-yl)-1-(4-(trifluoromethoxy)benzyl)pyridin-2(1H)-one]
Active: c-myc activity (IC50 <30 μM) (c-myc) | FRET activity (IC50 <30 μM) BRD4(1) [1] | IL-6 activity (IC50 <30 μM) (hIL-6 mRNA) | Cell Proliferation activity (IC50 <30 μM) [2] | ApoA-1 activity (EC170 <30 μM) (ApoA-I mRNA)

Cc1noc(C)c1-c1cc(N)c(=O)n(Cc2ccccc2Cl)c1 [Example 227, 3-amino-1-(2-chlorobenzyl)-5-(3,5-dimethylisoxazol-4-yl)pyridin-2(1H)-one]
Active: c-myc activity (IC50 <30 μM) (c-myc) | FRET activity (IC50 <30 μM) BRD4(1) [1] | IL-6 activity (IC50 <30 μM) (hIL-6 mRNA) | Cell Proliferation activity (IC50 <30 μM) [2] | ApoA-1 activity (EC170 <30 μM) (ApoA-I mRNA)

Cc1noc(C)c1-c1cc(N)c(=O)n(Cc2ccc(C(F)(F)F)cc2)c1 [Example 228, 3-amino-5-(3,5-dimethylisoxazol-4-yl)-1-(4-(trifluoromethyl)benzyl)pyridin-2(1H)-one]
Active: c-myc activity (IC50 <30 μM) (c-myc) | FRET activity (IC50 <30 μM) BRD4(1) [1] | IL-6 activity (IC50 <30 μM) (hIL-6 mRNA) | Cell Proliferation activity (IC50 <30 μM) [2] | ApoA-1 activity (EC170 <30 μM) (ApoA-I mRNA)
